This is an account of results in patent publication EP4523686A1, “A SIGMA-1 RECEPTOR POSITIVE MODULATOR FOR ITS USE IN THE PREVENTION AND THE TREATMENT OF A PATHOLOGY” (priority 2023, dated 2025).

Series [1] concerns Aβ25-35-induced learning impairments in mice. Briefly: Active avoidance in the rectangular water-maze, Aβ25-35 model of Alzheimer's disease. It counts as in vivo. On the procedure: Amyloid-β[25-35] peptide (Aβ25-35) was from Eurogentec (Angers, France). It was solubilized in distilled water at 3 mg/ml and stored at -20°C until use. Before injection, the peptide was incubated at 37°C for 4 days, allowing oligomerization. Control injection was performed with vehicle solution (distilled water), and intracerebroventricularly (ICV) injections were done as described previously (Maurice et al., 1996, 2019).
Non-spatial long-term memory was also examined using the successive training, place-learning procedure in the rectangular water-maze (Maurice et al., 1995, 2018). The apparatus is a black Plexiglas rectangular pool (30 × 60 × 36 cm high), filled with water at a high of 25 cm. The water temperature was maintained at 23 ± 1°C. A transparent Plexiglas platform (5 × 8.5 × 0.5 cm) was fixed in the southeast corner of the pool, 1 cm below the water surface. On acquisition days 1 and 2, each mouse was placed at the middle of the west side of the pool, facing the wall, and the latency to find the platform was recorded up to 60 s. The mouse was allowed to remain on it for 20 s, and then removed from the pool into its home cage. […] Each animal was run in this manner for a total of 5 trials on day 1, and 3 trials on day 2. […] A short-term memory (STM) index was defined as the mean difference in swimming duration between trial n and trial n-1 for trials 2 to 5 and 7 to 8. The STM index was analysed vs. zero level (= no improvement). On day 4, 48 h after the last training session, animals were tested for retention. The platform was removed. Each mouse was again placed at the starting point and observed for 60 s. The latency to reach the original platform location and the time spent on the platform location was recorded.
SIG-1R acting drugs are potent neuroprotective drugs in several neurodegenerative disease indications. Moreover, Blarcamesine, the drug presently tested in a clinical phase 3 assay (NCT04314934) was identified in the pharmacological model of AD induced in mice by ICV administration of oligomerized Aβ25-35 peptide (Villard et al., 2011). […]

Series [2] deals with Kv channel. Briefly: CEREP in vitro binding assay (pharmacological profiling).
In series [3] the target is T1, 5-HT3 receptor (Homo sapiens, UniProt P46098).
T1 construct: CEREP
T1 sequence (P46098 24-478): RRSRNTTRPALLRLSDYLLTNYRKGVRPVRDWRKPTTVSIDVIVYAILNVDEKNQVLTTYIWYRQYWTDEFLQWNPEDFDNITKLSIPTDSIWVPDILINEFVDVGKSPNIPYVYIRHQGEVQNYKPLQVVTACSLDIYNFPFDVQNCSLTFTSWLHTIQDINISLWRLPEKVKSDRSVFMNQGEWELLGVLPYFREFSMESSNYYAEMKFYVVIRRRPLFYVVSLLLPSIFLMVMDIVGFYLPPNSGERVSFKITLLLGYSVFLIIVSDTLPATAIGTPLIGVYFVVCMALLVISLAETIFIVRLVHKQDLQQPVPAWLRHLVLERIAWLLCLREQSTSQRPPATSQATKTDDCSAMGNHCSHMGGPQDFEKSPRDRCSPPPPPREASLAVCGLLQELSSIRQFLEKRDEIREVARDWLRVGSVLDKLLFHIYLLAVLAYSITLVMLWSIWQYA
The series is described as above. On the procedure: (§1) Table 1 represents pharmacological profiling of convolamine which was tested at […] and 1 µM in in vitro binding assays designed with appropriate reference compounds in duplicates at CEREP facility.

The target in series [4] is T2, CB2 receptors (Homo sapiens, UniProt P34972).
T2 construct: CEREP
The description is as above. Particulars: at micromolar concentrations; range given jointly for CB2, Kv, 5-HT3. The protocol: as §1

For series [5], the system named is Male Swiss mice. Briefly: Open field activity test (anxiolytic effect) and observation of animals. Format: in vivo. The protocol:
Drug administration: Route: intraperitoneal (IP), Method: by injection. The drug was administered under a volume calculated according to the individual body weight of each mouse (5 ml/kg), Frequency: once before the behavioral procedure, Treatment length: once, Timing: 30 minutes before behavioral procedure.
Health of animals was checked daily: general aspect of animals, activity, acute or delayed mortality. Weight was monitored the day of experiment.
The day of the test, animals were tested for general locomotor activity in the open field (OF) activity test for 10 min. The open field is made of opaque white plexiglass. The arena is composed of a large square box (50cm × 50cm × 50cm). Animal movements were followed by an overhead camera placed above the apparatus. Each mouse was placed in the center of the arena and allowed to move freely through the arena during its session. The locomotor activity was assessed by counting the total distance traveled measured in centimeters (cm) for the whole session time. The time spent in center area, and the number of defecations were also assessed.

Series [6] concerns Wfs1^ΔExon8 mice. Description: Step-through passive avoidance, Wolfram syndrome mouse model. As to conditions: IP 20 min before training, retention 24 h after training. It counts as in vivo. The text has this:
The apparatus is a two-compartments (15 × 20 × 15 cm high) box with one illuminated with white polyvinylchloride walls and the other darkened with black polyvinylchloride walls and a grid floor. A guillotine door separates each compartment. A 60 W lamp positioned 40 cm above the apparatus lights up the white compartment during the experiment. Scrambled foot shocks (0.3 mA for 3 s) could be delivered to the grid floor using a shock generator scrambler (Lafayette Instruments, Lafayette, USA). The guillotine door was initially closed during the training session. Each mouse was placed into the white compartment. After 5 s, the door was raised. When the mouse entered the darkened compartment and placed all its paws on the grid floor, the door is closed and the foot shocks delivered for 3 s. The step-through latency (STL-Tg), that is, the latency spent to enter the darkened compartment, and the number of vocalizations were recorded. The retention test was carried out 24 h after training. Each mouse was placed again into the white compartment. After 5 s, the door was raised. The step-through latency (STL-R) was recorded up to 300 s (Meunier et al., 2006, 2013; Villard et al., 2009, 2011). An exclusion criteria was STL-Tg and STL-R < 10 s. Animals showing these readouts are excluded from the calculations. Attrition is routinely < 5% in this test.

[7] abbreviates: at micromolar concentrations, range given jointly for CB2, Kv, 5-HT3.

T2 sequence (P34972 whole entry): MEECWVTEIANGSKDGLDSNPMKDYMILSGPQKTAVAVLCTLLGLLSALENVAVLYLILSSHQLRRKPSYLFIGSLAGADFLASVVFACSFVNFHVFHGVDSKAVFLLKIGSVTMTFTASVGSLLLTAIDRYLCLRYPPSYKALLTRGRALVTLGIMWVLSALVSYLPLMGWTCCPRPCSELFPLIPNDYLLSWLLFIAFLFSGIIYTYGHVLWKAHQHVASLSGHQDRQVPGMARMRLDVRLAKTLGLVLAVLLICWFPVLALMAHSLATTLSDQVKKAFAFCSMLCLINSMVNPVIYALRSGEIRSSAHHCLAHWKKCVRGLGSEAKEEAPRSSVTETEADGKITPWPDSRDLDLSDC

Broadly, the inhibition is the drop in the measured response relative to a control, in per cent. Take `COc1ccc(C(=O)OC2CC3CCC(C2)N3C)cc1OC` (stereo not drawn) [Convolamine, (8-methyl-8-azabicyclo[3.2.1]octan-3-yl) 3,4-dimethoxybenzoate]: the “STM (short-term memory index) in Aβ25-35-treated mice (in words)” value in series [1] (at 1 mg/kg) is recorded as “significantly increased”. Moreover, the “Aβ25-35-induced decrease in number of platform location crossings (in words)” value in series [1] (at 1 mg/kg IP) was “significantly attenuated”. Moreover, in series [1] (at 1 mg/kg IP), the “Aβ25-35-induced increase in latency in the retention session (in words)” value was “significantly attenuated”. Also, the “inhibition at 0.1 µM” value in series [2] (0.1 µM, duplicates) came out at 30.4%; in series [3] (0.1 µM, duplicates) it was 16.2%. The “inhibition at 1 µM” value in series [2] (1 µM, duplicates) was 22.7%; in series [3] (1 µM, duplicates) it was 61.7%. The “inhibitions of the selective radiotracer” value in series [2] (setting [7]), in series [3] (setting [7]) and in series [4] was 20-60% each time. The “inhibition of binding on the 5-HT3 receptor (in words)” value in series [3] (at 1 µM) is on record as “partial inhibition”. For the same compound, in series [5] (IP 30 minutes before the test), the “percentage of locomotion in center of the arena (in words)” value is “increase”. The “time spent in the center of the arena (in words)” value in series [5] (IP 30 minutes before the test, compared to the vehicle-treated group) is “significant and bell-shaped increase”. The “mortality and adverse effect (in words)” value in series [5] (single IP injection, daily health check) is recorded as “No mortality nor adverse effect”. Also, the “step-through latency deficit during retention (in words)” value in series [6] is reported as “attenuated the deficit”.
